Measured values published in US11357779B2 (G1 Therapeutics, Inc., priority 2018, dated 2022).
Read-outs that look alike come from different tables or passages of the source.

Assay: Plasma concentration versus time of Compound I and metabolite Compound III in patients dosed QD or BID with Form B of Compound II plus fulvestrant
Type: in vivo, human
Details: human, plasma, oral; for concentration at 8 h: Day 1, 8.0 h; for concentration at 10 h: Day 1, 10.0 h; for concentration at 12 h: Day 1, 12.0 h; for concentration at 8 day: Day 8; for concentration at 15 day: Day 15; for concentration at 22 day: Day 22
Excerpt: Patients were enrolled into 1 of 2 parallel, independently operating, dose-escalation dosing cohorts with Form B of Compound II administered continuously either once daily (QD) or twice daily (BID) with food with fixed-dose fulvestrant (intramuscularly every 14 days for the first three injections and then every 28 days). Pre- or perimenopausal patients also received goserelin for the duration of study treatment. A […] agonist was started at least 28 days before the first dose of Form B, and those patients who were taking another LHRH agonist were switched to goserelin on Day 1. Patients were split into […] cohorts providing once a day (QD) dosing of 200 mg, 300 mg, 400 mg, 500 mg, or 650 mg of Form B, or twice a day (BID) dosing of 100 mg, 150 mg, or 200 mg of Form B. The second dose in BID cohorts was not administered in the evening until at least 12 hours after the initial morning dose of Form B. The dosing cohorts for Form B of Compound II are provided in Table 1.
Blood samples were collected at the following time points relative to the morning dose of Form B at Day 1 and at Day 29: pre-dose (0 hour) and 1, 2, 3, 4, 6, 8, 10, 12 (prior to the evening dose in the BID cohorts), and 24 (prior to the next day's morning dose) hours after dosing. A 5-minute time window was allowed for samples collected between the predose and 3 hours after Form B dosing. A 15-minute window was allowed for samples collected between 4 to 12 hours after Form B dosing. A 1-hour window was allowed for the sample collected 24 hours after Form B dosing. Blood samples for Compound I PK trough levels were collected pre-dose at Day 8, Day 15, and Day 22 prior to the morning administration of Compound I. Plasma concentrations of Compound I and its metabolite, Compound III, were measured using validated methods.
Analysis of plasma concentration versus time data for calculation of standard pharmacokinetic (PK) parameters following oral administration was conducted using Phoenix WinNonlin version 6.3 using actual blood sampling times.

[1] = 100 mg, 100 mg BID of Form B, Mean, read-out: Compound III Concentration
[2] = 100 mg, 100 mg BID of Form B, Median, read-out: Compound III Concentration
[3] = 100 mg, Cohort 6, 100 mg BID of Form B, read-out: Trough Compound III Concentration, Median
[4] = 100 mg, Cohort 6, 100 mg BID of Form B, read-out: Trough Compound III Concentration, Min
[5] = 400 mg, Cohort 3, 400 mg QD of Form B, read-out: Trough Compound III Concentration, Max
[6] = 400 mg, Cohort 3, 400 mg QD of Form B, read-out: Trough Compound III Concentration, Mean
[7] = 400 mg, Cohort 3, 400 mg QD of Form B, read-out: Trough Compound III Concentration, Median
[8] = 500 mg, Cohort 4, 500 mg QD of Form B, read-out: Trough Compound III Concentration, Max
[9] = 500 mg, Cohort 4, 500 mg QD of Form B, read-out: Trough Compound III Concentration, Mean
[10] = 500 mg, Cohort 4, 500 mg QD of Form B, read-out: Trough Compound III Concentration, Median
[11] = 500 mg, Cohort 4, 500 mg QD of Form B, read-out: Trough Compound III Concentration, Min

- concentration at 0 h (100 mg, 100 mg BID of Form B, Day 1, 0.0 h, Mean, read-out: Compound III Concentration): 0 ng/mL
- concentration at 0 h (100 mg, 100 mg BID of Form B, Day 1, 0.0 h, Median, read-out: Compound III Concentration): 0 ng/mL
- concentration at 1 h (100 mg, 100 mg BID of Form B, Day 1, 1.0 h, Mean, read-out: Compound III Concentration): 0.248 ng/mL
- concentration at 1 h (100 mg, 100 mg BID of Form B, Day 1, 1.0 h, Median, read-out: Compound III Concentration): 0 ng/mL
- concentration at 2 h (100 mg, 100 mg BID of Form B, Day 1, 2.0 h, Mean, read-out: Compound III Concentration): 1.04 ng/mL
- concentration at 2 h (100 mg, 100 mg BID of Form B, Day 1, 2.0 h, Median, read-out: Compound III Concentration): 1 ng/mL
- concentration at 3 h (100 mg, 100 mg BID of Form B, Day 1, 3.0 h, Mean, read-out: Compound III Concentration): 1.41 ng/mL
- concentration at 3 h (100 mg, 100 mg BID of Form B, Day 1, 3.0 h, Median, read-out: Compound III Concentration): 1.42 ng/mL
- concentration at 4 h (100 mg, 100 mg BID of Form B, Day 1, 4.0 h, Mean, read-out: Compound III Concentration): 1.25 ng/mL
- concentration at 4 h (100 mg, 100 mg BID of Form B, Day 1, 4.0 h, Median, read-out: Compound III Concentration): 1.13 ng/mL
- concentration at 6 h (100 mg, 100 mg BID of Form B, Day 1, 6.0 h, Mean, read-out: Compound III Concentration): 0.471 ng/mL
- concentration at 6 h (100 mg, 100 mg BID of Form B, Day 1, 6.0 h, Median, read-out: Compound III Concentration): 0.382 ng/mL
- concentration at 8 h [1]: 0.219 ng/mL
- concentration at 8 h [2]: 0 ng/mL
- concentration at 10 h [1]: 0 ng/mL
- concentration at 10 h [2]: 0 ng/mL
- concentration at 12 h [1]: 0.0917 ng/mL
- concentration at 12 h [2]: 0 ng/mL
- concentration at 8 day [3]: 0.481 ng/mL
- concentration at 8 day [4]: 0 ng/mL
- concentration at 15 day [3]: 0.895 ng/mL
- concentration at 15 day [4]: 0 ng/mL
- concentration at 22 day [3]: 0.403 ng/mL
- concentration at 22 day [4]: 0 ng/mL
- concentration at 0 h (150 mg, 150 mg BID of Form B, Day 1, 0.0 h, Median, read-out: Compound III Concentration): 0 ng/mL
- concentration at 1 h (150 mg, 150 mg BID of Form B, Day 1, 1.0 h, Median, read-out: Compound III Concentration): 1.52 ng/mL
- concentration at 8 day [5]: 0.702 ng/mL
- concentration at 8 day [6]: 0.406 ng/mL
- concentration at 8 day [7]: 0.515 ng/mL
- concentration at 15 day [5]: 0.665 ng/mL
- concentration at 15 day [6]: 0.435 ng/mL
- concentration at 15 day [7]: 0.64 ng/mL
- concentration at 22 day [5]: 0.935 ng/mL
- concentration at 22 day [6]: 0.729 ng/mL
- concentration at 22 day [7]: 0.736 ng/mL
- concentration at 22 day (400 mg, Cohort 3, 400 mg QD of Form B, read-out: Trough Compound III Concentration, Min): 0.515 ng/mL
- concentration at 8 day [8]: 1.98 ng/mL
- concentration at 8 day [9]: 1.71 ng/mL
- concentration at 8 day [10]: 1.62 ng/mL
- concentration at 8 day [11]: 1.53 ng/mL
- concentration at 15 day [8]: 2.66 ng/mL
- concentration at 15 day [9]: 2.07 ng/mL
- concentration at 15 day [10]: 2.15 ng/mL
- concentration at 15 day [11]: 1.33 ng/mL
- concentration at 22 day [8]: 2.11 ng/mL
- concentration at 22 day [9]: 1.73 ng/mL
- concentration at 22 day [10]: 1.58 ng/mL
- concentration at 22 day [11]: 1.5 ng/mL
- concentration at 0 h (500 mg, Cohort 4, 500 mg QD of Form B, Day 29, 0.0 h, read-out: Compound III Concentration, Mean): 1.76 ng/mL
- concentration at 0 h (500 mg, Cohort 4, 500 mg QD of Form B, Day 29, 0.0 h, read-out: Compound III Concentration, Min): 1.41 ng/mL
- concentration at 1 h (500 mg, Cohort 4, 500 mg QD of Form B, Day 29, 1.0 h, read-out: Compound III Concentration, Mean): 2.98 ng/mL
- concentration at 1 h (500 mg, Cohort 4, 500 mg QD of Form B, Day 29, 1.0 h, read-out: Compound III Concentration, Min): 2.06 ng/mL
- concentration at 2 h (500 mg, Cohort 4, 500 mg QD of Form B, Day 29, 2.0 h, read-out: Compound III Concentration, Mean): 4.39 ng/mL
- concentration at 2 h (500 mg, Cohort 4, 500 mg QD of Form B, Day 29, 2.0 h, read-out: Compound III Concentration, Min): 3.61 ng/mL
- concentration at 3 h (500 mg, Cohort 4, 500 mg QD of Form B, Day 29, 3.0 h, read-out: Compound III Concentration, Mean): 5.9 ng/mL
- concentration at 3 h (500 mg, Cohort 4, 500 mg QD of Form B, Day 29, 3.0 h, read-out: Compound III Concentration, Min): 4.66 ng/mL
- concentration at 4 h (500 mg, Cohort 4, 500 mg QD of Form B, Day 29, 4.0 h, read-out: Compound III Concentration, Mean): 5.77 ng/mL
- concentration at 4 h (500 mg, Cohort 4, 500 mg QD of Form B, Day 29, 4.0 h, read-out: Compound III Concentration, Min): 4.04 ng/mL
- concentration at 6 h (500 mg, Cohort 4, 500 mg QD of Form B, Day 29, 6.0 h, read-out: Compound III Concentration, Mean): 4.18 ng/mL
- concentration at 6 h (500 mg, Cohort 4, 500 mg QD of Form B, Day 29, 6.0 h, read-out: Compound III Concentration, Min): 3.55 ng/mL
Structure (SMILES): O=C1NCC2(CCCCC2)n2c1cc1cnc(Nc3ccc(N4CCNCC4)cn3)nc12 [Compound III, 2′-((5-(piperazin-1-yl)pyridin-2-yl)amino)-7′,8′-dihydro-6′H-spiro[cyclohexane-1,9′-pyrazino[1′,2′:1,5]pyrrolo[2,3-d]pyrimidin]-6′-one]
